From PubChem BioAssay (NCI)
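Test compounds were applied to cells in 96-well plates for 48 hours at 5 doses. GI50 is the concentration that inhibits growth by half. TGI: total growth inhibition.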

Tests used:
Experiment in all cases: DTP human tumour cell line panel, 48 h
A549 NSCLC = tested on: A549 NSCLC
HCT-116 colon = tested on: HCT-116 colon
HT29 colon = tested on: HT29 colon
NCI-H226 lung = tested on: NCI-H226 lung
NCI-H23 lung = tested on: NCI-H23 lung
NCI-H522 lung = tested on: NCI-H522 lung
NCI/ADR-RES ovarian = tested on: NCI/ADR-RES ovarian
RXF 393 renal = tested on: RXF 393 renal
SW-620 colon = tested on: SW-620 colon
UO-31 renal = tested on: UO-31 renal

SMILES | TGI (A549 NSCLC) [µM] | TGI (HCT-116 colon) [µM] | TGI (HT29 colon) [µM] | TGI (NCI-H226 lung) [µM] | TGI (NCI-H23 lung) [µM] | TGI (NCI-H522 lung) [µM] | TGI (NCI/ADR-RES ovarian) [µM] | TGI (RXF 393 renal) [µM] | TGI (SW-620 colon) [µM] | TGI (UO-31 renal) [µM] | GI50 (A549 NSCLC) [µM] | GI50 (HCT-116 colon) [µM] | GI50 (HT29 colon) [µM] | GI50 (NCI-H226 lung) [µM] | GI50 (NCI-H23 lung) [µM] | GI50 (NCI-H522 lung) [µM] | GI50 (NCI/ADR-RES ovarian) [µM] | GI50 (RXF 393 renal) [µM] | GI50 (SW-620 colon) [µM] | GI50 (UO-31 renal) [µM]
Cc1cc2c(cc1-c1cc3c(cc1C)C(C(C)C)=C(O)C(=O)/C3=C\Nc1c(C)n(C)n(-c3ccccc3)c1=O)/C(=C/Nc1c(C)n(C)n(-c3ccccc3)c1=O)C(=O)C(O)=C2C(C)C | > 100 | > 100 | > 100 | > 100 | > 100 | > 100 | > 100 | > 100 | > 100 | > 100 |  |  |  |  |  |  |  |  |  | 
CCCC(=O)Nc1cc(/C=C/C(=O)N2CC(CCl)c3c2cc([N+](=O)[O-])c2ccccc32)n(C)c1 (stereo unspecified) | > 100 | > 100 | > 100 | > 100 | > 100 | > 100 | > 100 | > 100 | > 100 | > 100 |  |  |  |  |  |  |  |  |  | 
NC(=O)c1ncn2c(=O)n(CCl)nnc12 | > 100 | > 100 | > 100 | > 100 | > 100 | > 100 | > 100 | > 100 | > 100 | > 100 |  |  |  |  |  |  |  |  |  | 
COc1cc(/C=c2/c3ccccc3n3c2cc(-c2ccccc2)[n+]3C)cc(OC)c1OC | > 100 | 6.96 | 11.4 | 32.8 | 14.8 | 9.6 | > 100 | 6.18 | 14.5 | > 35.9 |  |  |  |  |  |  |  |  |  | 
Cc1oncc1NC1=CC(=O)C(=O)c2ccccc21 | 15.7 | 10.6 | 11.6 | 39.4 | 17.6 | 19.2 | > 100 | 27.5 | 17.1 | 27.9 |  |  |  |  |  |  |  |  |  | 
CCNc1cc2c3c(c1)CCCN3CCC2 | 35.9 | 19.2 | 21.6 | 41.9 | 21.9 | 62.7 | 52.2 | > 100 | 55.2 | > 100 |  |  |  |  |  |  |  |  |  | 
CC(C)(C)c1cc(/C=C/C(=O)CC(=O)/C=C/c2cc(C(C)(C)C)c(O)c(C(C)(C)C)c2)cc(C(C)(C)C)c1O | > 50 | > 50 | > 50 | > 50 | > 50 | > 50 | > 50 | > 50 | > 50 | > 50 |  |  |  |  |  |  |  |  |  | 
COP(=O)(OC)c1ccc(NCc2cc(O)ccc2O)cc1 | > 100 | > 59.7 | 56.3 | > 77.9 | > 75.8 | > 71.8 | > 84.5 | 74.9 | > 100 | 29.3 |  |  |  |  |  |  |  |  |  | 
O=C(CCc1ccc(O)c(O)c1)NCCc1ccc(O)c(O)c1 | > 100 | > 100 | > 100 | > 100 | > 100 | > 100 | > 100 | > 100 | > 100 | > 100 |  |  |  |  |  |  |  |  |  | 
COc1ccc2oc(=Nc3ccc(F)cc3)c(C(N)=O)cc2c1 | > 100 | > 100 | > 100 | > 100 | > 100 | > 100 | > 100 | 37.3 | > 100 | > 100 |  |  |  |  |  |  |  |  |  | 
O=c1oc2c/c(=C\c3ccccc3)c(=O)c3cccc1c3-2 | > 100 | 71.2 | > 100 | 75.3 | > 100 | 45.1 | > 100 | 72.6 | 57.1 | 85.5 |  |  |  |  |  |  |  |  |  | 
Cn1c(N=[N+]=[N-])cc(=O)n(C)c1=O | > 100 | > 100 | > 100 | > 100 | > 100 | > 100 | > 100 | > 100 | > 100 | > 100 |  |  |  |  |  |  |  |  |  | 
N/C(=N\N=C\c1cc2c(cc1Cl)OCO2)NO | > 100 | > 100 | > 100 | > 93.7 | > 100 | > 100 | 57.2 | > 100 | > 100 | 64.2 |  |  |  |  |  |  |  |  |  | 
CN(C)CCNC(=O)c1cccc2[nH]c(-c3ccncc3)nc12 | > 44.9 | 9.82 | 7.27 | > 50.5 | 32.1 | 3.97 | > 100 | 14.5 | 13 | 6.76 |  |  |  |  |  |  |  |  |  | 
COC(=O)C(Cc1ccccc1)NC(=O)c1ccc(CNC(=S)NCc2cccc(CNC(=S)NCc3ccccc3)c2)cc1 (stereo unspecified) | > 62.5 | > 62.5 | > 62.5 | > 62.5 | > 62.5 | > 62.5 | > 62.5 | > 62.5 | > 62.5 | > 62.5 |  |  |  |  |  |  |  |  |  | 
CNc1ncnc2c1nnn2C | > 100 | > 100 | > 100 | > 100 | > 100 | > 100 | > 100 | > 100 | > 100 | > 100 |  |  |  |  |  |  |  |  |  | 
CCCCCC(O)(CCCCC)CCCCCCCCC1=C(O)c2ccccc2C(=O)C1=O | > 53.6 | 15.2 | 27.9 | 36.4 | 21.9 | 67.9 | 21.8 | 29.9 | 32 | 28 |  |  |  |  |  |  |  |  |  | 

SMILES | TGI (A549 NSCLC) [µM] | TGI (HCT-116 colon) [µM] | TGI (HT29 colon) [µM] | TGI (NCI-H226 lung) [µM] | TGI (NCI-H23 lung) [µM] | TGI (NCI-H522 lung) [µM] | TGI (NCI/ADR-RES ovarian) [µM] | TGI (RXF 393 renal) [µM] | TGI (SW-620 colon) [µM] | TGI (UO-31 renal) [µM] | GI50 (A549 NSCLC) [µM] | GI50 (HCT-116 colon) [µM] | GI50 (HT29 colon) [µM] | GI50 (NCI-H226 lung) [µM] | GI50 (NCI-H23 lung) [µM] | GI50 (NCI-H522 lung) [µM] | GI50 (NCI/ADR-RES ovarian) [µM] | GI50 (RXF 393 renal) [µM] | GI50 (SW-620 colon) [µM] | GI50 (UO-31 renal) [µM]
CSC1(SC)N2Cc3ccccc3N=C2C1(c1ccccc1)c1ccccc1 | > 100 | > 100 | > 100 | > 100 | > 100 | 29.4 | > 67 | > 48.6 | > 63.7 | > 100 |  |  |  |  |  |  |  |  |  | 
CC(O)c1cc2c(s1)C(=O)c1scc(C(C)O)c1C2=O (stereo unspecified) | 3.98 | 2.64 | 5.27 | 4.03 | 0.415 | 2.56 | 1.05 | 2.57 | > 100 | 1.41 |  |  |  |  |  |  |  |  |  | 
Cn1cc(-c2nc(-c3c[nH]c4ccncc34)cs2)c2cc(F)ccc21 | 3.57 | 3.28 | 2.93 | 3.9 | 3.25 | 3.23 | 4.19 | 3.04 | 3.4 | 2.92 | 1.85 | 1.63 | 1.44 | 1.92 | 1.72 | 1.67 | 1.93 | 1.57 | 1.65 | 1.57
COc1cc(C2c3cc4c(cc3OC3(OC)COC(=O)C23)OCO4)cc(OC)c1OC (stereo unspecified) | > 37.8 | 7 | 0.804 | 8.16 | > 100 | 3.19 | 4.39 | 11.7 | > 100 | > 100 |  |  |  |  |  |  |  |  |  | 
COc1ccc(CCNC(=O)CCCCCO)cc1OC | > 100 | > 100 | > 100 | > 100 | > 100 | > 100 | > 100 | > 100 | > 100 | > 100 |  |  |  |  |  |  |  |  |  | 
CC1CC(=O)Nc2ccc(N=NN(C)C)cc2N1C=O (stereo unspecified) | > 100 | > 100 | > 100 | > 100 | > 100 | > 100 | > 100 | > 100 | > 100 | > 100 |  |  |  |  |  |  |  |  |  | 
NNC(=O)CCC(NS(=O)(=O)c1ccc(Cl)cc1)C(=O)NN (stereo unspecified) | > 100 | > 100 | > 100 | > 100 | > 100 | > 100 | > 100 | > 100 | > 100 | > 100 |  |  |  |  |  |  |  |  |  | 
S=c1nc2sc3c(c2c(Nc2ccc(Br)cc2)[nH]1)CCN(N1CCc2c(sc4nc(=S)[nH]c(Nc5ccc(Br)cc5)c24)C1)C3 | > 50 | > 50 | > 50 | > 50 | > 50 | 44.5 | > 50 | 42.5 | > 50 | > 50 |  |  |  |  |  |  |  |  |  | 
C[C@H](N)C(=O)N[C@@H]1[C@H]2C(=C(O)C[C@@H](O)[C@@H]2O)C(=O)O[C@@H]1C | > 100 | > 100 | > 100 | > 100 | > 100 | > 100 | > 100 | > 100 | > 100 | > 100 |  |  |  |  |  |  |  |  |  | 
O=[N+]([O-])c1ccc2nc(/C=C(\O)c3ccccc3)c(/C=C(\O)c3ccccc3)nc2c1 | > 58.5 | > 37.8 | > 100 | > 100 | > 60.4 | 38.7 | > 89 | 38.2 | 61.4 | 31.6 |  |  |  |  |  |  |  |  | 6.11 | 
O=C(NN1C(=O)CSC1c1ccco1)c1ccncc1 (stereo unspecified) | > 100 | > 100 | > 100 | > 100 | > 100 | > 100 | > 100 | > 100 | > 100 | > 100 |  |  |  |  |  |  |  |  |  | 
COc1cccc2c1-c1c(OC)cccc1SS2 | 33.5 | 40.4 | 36.2 | 42.7 | 72.8 | 64.5 | > 100 | 63.6 | 47.2 | > 100 |  |  |  |  |  |  |  |  |  | 
CCOC(=O)C1C[C@H]2CO[C@H](c3ccccc3)N2C1=O (stereo partly specified) | > 100 | > 100 | > 100 | > 100 | > 100 | > 100 | > 100 | > 100 | > 100 | > 100 |  |  |  |  |  |  |  |  |  | 
O=S(=O)(O)c1cc(Nc2ccnc3ccccc23)c2c(S(=O)(=O)O)cc(S(=O)(=O)O)cc2c1 | > 100 | > 100 | > 100 | > 100 | > 100 | > 100 | > 100 | > 100 | > 100 | > 100 |  |  |  |  |  |  |  |  |  | 
COc1ccc(N2C(N)=C(C#N)C(C#N)(C#N)C2c2cccc([N+](=O)[O-])c2)cc1 (stereo unspecified) | 34.2 | 23.8 | 29.1 | 35.4 | 30.8 | 20.7 | 43.2 | 23.6 | 26 | 31.3 |  |  |  |  |  |  |  |  |  | 
COc1cc(O)c2c(=O)c(OC)c(-c3ccc4c(c3)OCO4)oc2c1OC | > 50 | > 50 | > 50 | > 50 | > 50 | > 50 | > 50 | > 50 | > 50 | > 50 |  |  |  |  |  |  |  |  |  | 
COC12OC3CC4(C)C(=CC3OC(OC(C)C1O)C2O)CCC1C4CCC2(C)C(c3ccc(=O)oc3)CCC12O (stereo unspecified) | 0.00166 | 0.00193 | 0.00277 | 0.00676 | 0.00177 | < 0.001 | 0.00258 | 0.0116 | 0.00731 | 0.00457 |  |  |  |  |  |  |  |  |  | 
